From patent US20150141485A1, “PROGNOSIS AND TREATMENT OF LUNG CANCER USING miRNA-135b” (NATIONAL CHENG KUNG UNIVERSITY, priority 2013, published 2015)
Oligonucleotides are written 5' to 3', each unit as a sugar letter and its base; * is a phosphorothioate linkage, no mark a phosphodiester; rarer units and linkages stand in square brackets, end groups in braces. Plain capitals give the bases only. {Chol} = cholesterol; m = 2'-O-methyl

How the values were obtained:
[1] = tested on: H441 human lung adenocarcinoma cells; assay: Subcutaneous xenograft tumor growth; type: in vivo, nude mice
Method: Nude mice were subcutaneously injected with 5×10^5 H441 cells. Scramble antagomir (NC) or miR-135b Antagomir (antago-135b) was administered via tail vein injection 2 days after implantation. On day 14 after cancer cell implantation, tumor volume measurements began and were performed every 4 days (n=9). Mean±s.e.m. is shown,*P<0.05 by Student's t-test.
Animals were housed in a specific-pathgen-free environment in the animal facility of the Institute of Biomedical Sciences, Academia Sinica. All experimental procedures were in compliance with the Academia Sinica IACUC and Council of Agriculture Guidebook for the Care and Use of Laboratory Animals. For intravenous injections of the tumor cells, 1×10^6 cells were suspended in 0.1 mL of phosphate-buffered saline (PBS) and injected into lateral tail vein of SCID mice (10 mice per group). At 8 weeks after injection, all mice were killed, and lung surface tumor foci were counted. For the subcutaneous tumor assay, 1×10^6 CL1-0 cells or 2×10^5 H441 cells were subcutaneously injected in 0.1 mL of PBS into male nude mice (n=8 per group) and allowed to grow for 35 days to reach a volume of 50-200 mm^3 Control antagomir (Scramble) or anti-miR-135b antagomir (antago-135) was intravenously injected at a concentration of 10 μM in 0.1 mL of PBS 4 days after the cells were implanted. An example of a miR-135b antagomir is 5′mU(*)mC(*)mAmCmAmUmAmG-mGmAmAmUmGmAmAmAmAmGmCmC(*)mA(*)mU(*)mA(*)(3′-Ch1)3′ (SEQ ID NO:8). The mN indicates 2′-O-methyl base;* indicates phosphorothioate linkage; Ch1 indicates cholesterol.

Hop-62 cells [2] = assay: Migration assay (culture inserts); type: cell-based; conditions: Hop-62 cells transfected 48 hours, vs scramble (NC)
Method: (§1) CL1-5-F4 and Hop-62 cells were transfected with scramble (NC) of miR-135b-specific antagomir (Antago-135b) for 48 hours and the subjected to migration assays (FIG. 2d) and invasion assays (FIG. 2e) as described above. *P<0.05;**P<0.005 by Student's t-test.
(§2) For the migration assay, culture inserts (Ibidi, Munich, Germany) were inserted into 60-mm dishes. Next, the cell suspensions were seeded in each culture insert well at a concentration of 2.5×10^4 (CL1-0) or 3×10^4 (CL1-5-F4 and UACC-257) cells/mL. The culture inserts were removed to leave a gap of approximately 500 μm.

UACC-257 cells = assay: Western blot of endogenous LZTS1; type: cell-based; conditions: 100 nM, 48 hours
Method: CL1-5-F4 and UACC-257 cells were administrated with 100 nM of negative control (NC) or antago-135b for 48 hours. Total cell lysates were harvested for western blot analysis.

CL1-5 cells = assay: Orthotopic lung cancer model; type: in vivo, nude mice
Method: CL1-5 cells were implanted orthotopically into the left lungs of 6-weeks-old nude mice (n=9). A series of scramble antagomir (NC) or miR-135b antagomir (Antago-135b) intravenous injections were performed every 2 days after tumor cell implantation. Lungs were harvested 25 days after the cells were implanted. […] Arrows indicate the visible nodules. […] Data are expressed as mean±s.e.m. *P<0.05 by Student's t-test.
Mice bearing CL1-5 cells were subjected to scramble antagomir (NC) or miR-135b antagomir (Antago-135b) treatment. Animal survival was determine using Kaplan-Meier survival analysis and the log-rank test for data obtained 25 days after the cancer cells were orthotopically injected (n=9).
Next, the effects of miR-135b inhibition on tumor growth and metastasis in an orthotopic lung cancer model were checked. Seven intravenous injections of miR-135b antagomir were given 4 days after CL1-5 implantation.

[3] = tested on: pGL3-3′-UTRs of Hippo pathway genes; assay: Luciferase reporter assay, Hippo pathway 3'-UTRs; type: cell-based; conditions: CL1-0 cells co-transfected with miR-135b and pGL3-3′-UTRs, 60 hours
Method: CL1-0 cells co-transfected with miR-135b and pGL3-3′-UTRs with scramble (NC) or Antago-135b for 60 hours. Luciferase activity was assayed and is presented a described in FIG. 6a. Mean±s.d. is shown, *P<0.05; **P<0.005 by Student's t-test.
(§3) One day before transfection, CL1-0 cells were seeded at a concentration of 2.5×10^4 per well. Next, the pClneo vector or miR-135b plasmid was co-transfected with the pGL3-target gene-3′UTR. The Renilla lunciferase plasmid (phRL-TK, Promega, Madison, Wis.) was co-transfected as transfection control. Cells were lysed 36 hours after transfection, and luciferase activity was measured using a Dual-Luciferase system (Promega, Madison, Wis.) according to the manufacture's protocol.

LZTS1 3′-UTR = assay: Luciferase reporter assay, LZTS1 3'-UTR; type: cell-based; conditions: CL1-0 cells co-transfected with miR-135b, vs Scramble
Method: CL1-0 cells were co-transfected with miR-135b, wild-type LZTS1 3′-UTR along with Scramble or miR-135-specific antagomir (Antago-135b). Luciferase activity was measured and is presented as described in FIG. 5a. Mean±s.d. is shown, *P<0.05; **P<0.005 by Student's t-test.
as §3

Hop-62 cells [4] = assay: Transwell invasion assay; type: cell-based; conditions: Hop-62 cells transfected 48 hours, vs scramble (NC)
Method: as §1
Transwell chambers ([…], BD Falcon, Franklin Lakes, N.J.) were coated with the appropriate amount of Matrigel (BD Biosciences, San Jose, Calif.). Next, 2.5×10^4 cells were suspended in NuSerum-containing media (Gibco BRL, Grand Island N.Y., USA), seeded in the chamber and cultured, Cells that invaded the chamber from top to bottom were fixed with methanol and stained with a solution of propidium iodine (Sigma-Aldrich, St. Louis, Mo.). The propidiumiodine-positive signal was quantified using Analytical Imaging Station software package. Each sample was assayed in triplicate.

CL1-5-F4 cells = assay: Migration assay (culture inserts); type: cell-based, human; conditions: CL1-5-F4 cells transfected 48 hours, vs scramble (NC)
Method: as §1, §2

[5] = antagomir systemically injected 4 days after cancer cell implantation
[6] = seven i.v. injections, 4 days after CL1-5 implantation, vs control lungs

Substance: 5′mU(*)mC(*)mAmCmAmUmAmG-mGmAmAmUmGmAmAmAmAmGmCmC(*)mA(*)mU(*)mA(*)(3′-Ch1)3′ (SEQ ID NO:8) (mU*mC*mAmCmAmUmAmGmGmAmAmUmGmAmAmAmAmGmCmC*mA*mU*mA*{Chol}) [miR-135b antagomir]
- growth of H441 cells ([1]; antagomir administered before xenograft implantation): inhibited
- xenograft tumor incidence [1, 5]: significantly reduced
- xenograft tumor volume [1, 5]: significantly reduced
- migratory ability (Hop-62 cells [2]): inhibited these changes
- LZTS1 expression (UACC-257 cells): significantly increased
- orthotopic tumor growth (CL1-5 cells; [6]): inhibited orthotopic tumor growth
- volume of lung metastases (CL1-5 cells; [6]): decrease the volume of lung metastases
- survival rates (CL1-5 cells; systemic delivery in orthotopic tumor-bearing mice): increased survival rates
- miR-135b-induced reporter activity [3]: decrease
- suppressive effects of miR-135b on LZTS1 3′-UTR-carrying luciferase (LZTS1 3′-UTR): significantly reduced
- invasive ability (Hop-62 cells [4]): inhibited these changes
- migratory ability (CL1-5-F4 cells): inhibited these changes
